Test results published in patent publication US20250074889A1, “Novel Aminobenzene Derivative Having Cancer Cell Growth Inhibitory Effect, and Preventive or Therapeutic Pharmaceutical Composition Containing Same as Active Ingredient” (Daewoong Pharmaceutical Co., Ltd., priority 2022, published 2025).

Columns and labels:
Format in all cases: cell-based
[1] = tested on: NCI-H226 human mesothelioma cell line; assay: Cell growth inhibition test (CellTiter-Glo), NCI-H226; conditions: NCI-H226 cells
Method: (§1) The cell growth for the compounds prepared in Examples was measured by CellTiter-Glo® Luminescent Cell Viability (Promega, Catalog #G7571) method using NCI-H226 (addexbio), NCI-H28 (Korea Cell Line Bank) and MSTO-211H (elabscience) human mesothelioma cell lines. This evaluation method is a method in which when luciferase enzyme is activated by ATP flowing out from living cells, it reacts with a luciferin substrate, and the enzyme activity at this time is measured to confirm cell viability.
(§2) Specifically, NCI-H226, NCI-H28, and MSTO-211H cells were prepared in 100 μL of cell culture medium (RPMI medium, 10% FBS, 1% P/S, 4.5 g/L D-Glucose, 2.383 g/L HEPES Buffer, L-Glutamine, 1.5 g/L Sodium Bicarbonate, 110 mg/L Sodium pyruvate) in a white clear bottom 96-well microplate. The prepared plate was incubated in a 5% CO2 incubator at 37° C. for 24 hours, and then the previously prepared compounds of Examples were finally treated at concentrations of 0.001, 0.01, 0.1, 1, and 10 μM, which was repeated three times for all treatment solutions. The plates treated with the compounds of Examples were incubated in a 5% CO2 incubator at 37° C. 100 μL/well of the substrate aqueous solution containing luciferin was added to a white clear-bottom 96 well microplate, thereby initiating an enzyme reaction. The reaction was performed at room temperature in the dark for 10 minutes, and the luminescence was measured using a Flexstation3 multi-mode microplate reader. In accordance with the instructions for the CellTiter-Glo™ Luminescednt Cell Viability, the luciferase enzyme activity, which represents the amount of ATP, was measured by a chemiluminescence method, and the inhibitory activity of the compounds according to the present invention was calculated. The results of each compound were analyzed using Microsoft Excel, and the IC50 values were calculated using GraphPad Prism software.

[2] = tested on: transcription factor TEAD; assay: Activity inhibition test of transcription factor TEAD (ONE-Glo luciferase, TEAD reporter-MCF7 cell line); conditions: Homo sapiens; TEAD Reporter-MCF7 cells, 24 hours treatment, luciferase luminescence
Method: The transcription factor TEAD activity of the compounds prepared in Examples was measured by the ONE-Glo™ Luciferase assay (Promega, Catalog #E6110) method using the Hippo Pathway TEAD reporter-MCF7 recombinant cell line (BPS Bioscience, Catalog #60618).
Specifically, the TEAD Reporter-MCF7 cell line contains the firefly luciferase gene whose expression is regulated under the control of TEAD response elements in the MCF7, which is a human breast cancer cell line. In the cell line, a non-phosphorylated YAP/TAZ exists in the nucleus in a non-stressed condition, which continuously induces expression of the luciferase reporter.
TEAD Reporter-MCF7 cells were prepared in 100 μL of cell culture medium (MEM medium, 10% FBS, 1% P/S, 400 μg/mL Geneticin, 1% […], 1 mM NA pyruvate, 10 μg/mL Insulin) in a white clear bottom 96-well microplate. The prepared plate was incubated in a 5% CO2 incubator at 37° C. for 24 hours, and then the previously prepared compounds of Examples were finally treated at concentrations of 0.001, 0.01, 0.1, 1, and 10 µM, which were repeated three times for all treatment solutions. The plates treated with the compounds of Examples were incubated in a 5% CO2 incubator at 37° C. for 24 hours. 100 μL/well of the substrate aqueous solution containing luciferin was added to a white clear-bottom 96 well microplate, thereby initiating an enzyme reaction. The reaction was performed at room temperature for 5 minutes, and the luminescence (integration time 1000 ms) was measured using a Flexstation3 multi-mode microplate reader. In accordance with the instructions for the ONE-Glo™ Luciferase Assay, the luciferase enzyme activity, which represents the activity of the transcription factor TEAD, was measured by a chemiluminescence method, and the inhibitory activity of the compound according to the present invention was calculated. The results of each compound were analyzed using Microsoft Excel, and the IC50 values were calculated by GraphPad Prism software.

[3] = tested on: NCI-H28 human mesothelioma cell line; assay: Cell growth inhibition test (CellTiter-Glo), NCI-H28; conditions: NCI-H28 cells
Method: as §1, §2

[4] = tested on: MSTO-211H human mesothelioma cell line; assay: Cell growth inhibition test (CellTiter-Glo), MSTO-211H; conditions: MSTO-211H cells
Method: as §1, §2

Row | IC50 [1] | IC50 [2] | IC50 [3] | IC50 [4] | SMILES
1 | 18.8 nM | 258 nM |  |  | C=CC(=O)Nc1ccc(Nc2ccc(Cl)c(C)n2)c(-c2cn(C)cn2)c1 [Example 49, N-(4-((5-chloro-6-methylpyridin-2-yl)amino)-3-(1-methyl-1H-imidazol-4-yl)phenyl)acrylamide]
2 | 12 nM | 27 nM | > 10000 nM | > 10000 nM | C=CC(=O)Nc1ccc(Nc2ncc(C(F)(F)F)cc2F)c(-c2cn(C)cn2)c1 [Example 36, N-(4-((3-fluoro-5-(trifluoromethyl)pyridin-2-yl)amino)-3-(1-methyl-1H-imidazol-4-yl)phenyl)acrylamide]
3 | 46 nM | 12.3 nM |  |  | C=CC(=O)Nc1ccc(NC2CCCCC2)c(-c2ccccn2)c1 [Example 2, N-(4-(cyclohexylamino)-3-(pyridin-2-yl)phenyl)acrylamide]
4 |  | 314 nM | 3110 nM | > 10000 nM | C=CC(=O)Nc1ccc(Nc2cc(C(F)(F)F)ccn2)c(-c2cn(C)cn2)c1 [Example 31, N-(3-(1-methyl-1H-imidazol-4-yl)-4-((4-(trifluoromethyl)pyridin-2-yl)amino)phenyl)acrylamide]
5 | 148 nM | 69.1 nM |  |  | C=CC(=O)Nc1ccc(Nc2cc(Cl)c(Cl)cn2)c(-c2ccncn2)c1 [Example 16, N-(4-((4,5-dichloropyridin-2-yl)amino)-3-(pyrimidin-4-yl)phenyl)acrylamide]
6 | 3.3 nM | 3.9 nM |  |  | C=CC(=O)Nc1ccc(Nc2ccc(Cl)cc2)c(-c2cn(C)cn2)c1 [Example 47, N-(4-((4-chlorophenyl)amino)-3-(1-methyl-1H-imidazol-4-yl)phenyl)acrylamide]
7 | 33.8 nM | 113 nM |  |  | C=CC(=O)Nc1ccc(Nc2ccc(OC(F)(F)F)cc2)c(-c2cn(C)cn2)c1 [Example 45, N-(3-(1-methyl-1H-imidazol-4-yl)-4-((4-(trifluoromethoxy)phenyl)amino)phenyl)acrylamide]
8 | 7.4 nM | 33 nM |  |  | C=CC(=O)Nc1ccc(Nc2ccc(C(F)(F)F)c(Cl)c2)c(-c2cn(C)cn2)c1 [Example 43, N-(4-((3-chloro-4-(trifluoromethyl)phenyl)amino)-3-(1-methyl-1H-imidazol-4-yl)phenyl)acrylamide]
9 | 31.4 nM | 5.7 nM |  |  | C#Cc1ccc(Nc2ccc(NC(=O)C=C)cc2-c2ccn(C)n2)nc1 [Example 34, N-(4-((5-ethynylpyridin-2-yl)amino)-3-(1-methyl-1H-pyrazol-3-yl)phenyl)acrylamide]
10 | 11 nM | 5 nM |  |  | C=CC(=O)Nc1ccc(Nc2ncc(C(F)(F)F)cc2F)c(-c2ccn(C)n2)c1 [Example 56, N-(4-((3-fluoro-5-(trifluoromethyl)pyridin-2-yl)amino)-3-(1-methyl-1H-pyrazol-3-yl)phenyl)acrylamide]
11 | 875 nM | 28.6 nM |  |  | C=CS(=O)(=O)Nc1cnc(NCCc2nccs2)c(/C=C/c2ccc(F)cc2)c1 [Example 28]
12 | > 10000 nM | 3.7 nM |  |  | C=CC(=O)Nc1ccc(N[C@H]2CC[C@@H](C(F)(F)F)CC2)c(-c2ccccn2)c1 [Example 3, N-(3-(pyridin-2-yl)-4-((cis-4-(trifluoromethyl)cyclohexyl)amino)phenyl)acrylamide]
13 | 10.3 nM | 45 nM |  |  | C=CC(=O)Nc1ccc(Nc2ccc(Br)c(C)n2)c(-c2cn(C)cn2)c1 [Example 48, N-(4-((5-bromo-6-methylpyridin-2-yl)amino)-3-(1-methyl-1H-imidazol-4-yl)phenyl)acrylamide]
14 | 122 nM | 53.5 nM |  |  | C=CC(=O)Nc1ccc(Nc2ncc(C(F)(F)F)cc2Cl)c(-c2ccccn2)c1 [Example 7, N-(4-((3-chloro-5-(trifluoromethyl)pyridin-2-yl)amino)-3-(pyridin-2-yl)phenyl)acrylamide]
15 | 10 nM | 23 nM |  |  | C=CC(=O)Nc1ccc(Nc2cc(Cl)c(Cl)cn2)c(-c2cn(C)cn2)c1 [Example 10, N-(4-((4,5-dichloropyridin-2-yl)amino)-3-(1-methyl-1H-imidazol-4-yl)phenyl)acrylamide]
16 | 26 nM | 80 nM |  |  | C=CC(=O)Nc1ccc(Nc2ncc(C(F)(F)F)cc2Cl)c(-c2cn(C)cn2)c1 [Example 9, N-(4-((3-chloro-5-(trifluoromethyl)pyridin-2-yl)amino)-3-(1-methyl-1H-imidazol-4-yl)phenyl)acrylamide]
17 | 13.1 nM | 28 nM |  |  | C=CC(=O)Nc1ccc(Nc2cc(F)c(C(F)(F)F)c(F)c2)c(-c2cn(C)cn2)c1 [Example 46, N-(4-((3,5-difluoro-4-(trifluoromethyl)phenyl)amino)-3-(1-methyl-1H-imidazol-4-yl)phenyl)acrylamide]
18 | 6 nM | 10 nM |  |  | C=CC(=O)Nc1cnc(Nc2ccc(C(F)(F)F)cc2)c(-c2cn(C)cn2)c1 [Example 41, N-(5-(1-methyl-1H-imidazol-4-yl)-6-((4-(trifluoromethyl)phenyl)amino)pyridin-3-yl)acrylamide]
19 | 11.8 nM | 23.4 nM |  |  | C=CC(=O)Nc1ccc(Nc2cc(C(F)(F)F)ccn2)c(-c2ccn(C)n2)c1 [Example 54, N-(3-(1-methyl-1H-pyrazol-3-yl)-4-((4-(trifluoromethyl)pyridin-2-yl)amino)phenyl)acrylamide]
20 | 1250 nM | 2.4 nM |  |  | C=CC(=O)Nc1ccc(NCc2ccc(F)cc2)c(-c2ccccn2)c1 [Example 12, N-(4-((4-fluorobenzyl)amino)-3-(pyridin-2-yl)phenyl)acrylamide]
21 | 55 nM | 48 nM |  |  | C=CC(=O)Nc1ccc(NCCc2nccs2)c(/C=C/c2ccc(F)cc2)c1 [Example 23, (E)-N-(3-(4-fluorostyryl)-4-((2-(thiazol-2-yl)ethyl)amino)phenyl)acrylamide]
22 | 129 nM | 28.2 nM |  |  | C=CC(=O)Nc1ccc(NCc2ccc(F)cc2)c(-c2ccccc2)c1 [Example 11, N-(6-((4-fluorobenzyl)amino)-[1,1′-biphenyl]-3-yl)acrylamide]
23 | 3.9 nM | 8 nM |  |  | C=CC(=O)Nc1ccc(Nc2ccc(C(F)(F)F)c(F)c2F)c(-c2cn(C)cn2)c1 [Example 44, N-(4-((2,3-difluoro-4-(trifluoromethyl)phenyl)amino)-3-(1-methyl-1H-imidazol-4-yl)phenyl)acrylamide]
24 | 985 nM | 30 nM |  |  | C=CC(=O)Nc1cnc(NCCc2nccs2)c(/C=C/c2ccc(F)cc2)c1 [Example 27, (E)-N-(5-(4-fluorostyryl)-6-((2-(thiazol-2-yl)ethyl)amino)pyridin-3-yl)acrylamide]
25 | 14 nM | 15.4 nM |  |  | C=CC(=O)Nc1ccc(Nc2cc(Cl)c(Cl)cn2)c(-c2ccccn2)c1 [Example 8, N-(4-((4,5-dichloropyridin-2-yl)amino)-3-(pyridin-2-yl)phenyl)acrylamide]
26 | 4.7 nM | 7 nM |  |  | C=CC(=O)Nc1ccc(Nc2ccc(C(F)(F)F)cc2)c(-c2ccn(C)n2)c1 [Example 42, N-(3-(1-methyl-1H-pyrazol-3-yl)-4-((4-(trifluoromethyl)phenyl)amino)phenyl)acrylamide]
27 | 10.4 nM | 88 nM |  |  | C=CC(=O)Nc1ccc(Nc2ccc(Cl)cn2)c(-c2cn(C)cn2)c1 [Example 50, N-(4-((5-chloropyridin-2-yl)amino)-3-(1-methyl-1H-imidazol-4-yl)phenyl)acrylamide]

Row | SMILES | IC50 [1] | IC50 [2] | IC50 [3] | IC50 [4]
28 | C=CC(=O)Nc1ccc(NC2CCCCC2)c(-c2ccccc2)c1 [Example 1, N-(6-(cyclohexylamino)-[1,1′-biphenyl]-3-yl)acrylamide] | 132 nM | 42 nM |  | 
